Where a name gives a salt, the structure may show the parent alone.
The compounds below were run on T1, 1N4R p-tau (assay: p-tau aggregation modulator screen of 1280-compound library (ThS fluorescence net change over 16 h)). Settings: not given.
T1 construct: made in house; host or cells: E. coli (PIMAX system)
Assay type: biochemical
Set-up: key to PTAI>2SD: *: PTAI>2SD; key to PTAI>3SD: *: PTAI>3SD

`Nc1ccc(C(=O)O)c(O)c1` [4-aminosalicylic acid] and Tropisetron HCl are the same in ThS net change: 428 for the first, 428 for the second.

First: CCOC(=O)c1cncn1[C@H](C)c1ccccc1 [Etomidate]
Second: COc1ccc(CCN)cc1OC.Cl [Homoveratrylamine]
The ThS net change of the first is higher: 447 for the first, 439 for the second.

Same assay, conditions: 30 µM compound, 6 µM p-tau, 16 h

In the case of `CC/C(=C(\c1ccccc1)c1ccc(OCCN(C)C)cc1)c1ccccc1` [tamoxifen, reference compound], the “effect on p-tau aggregation in pilot screen” value is reported as “none of them affected p-tau aggregation”.

Same assay, conditions: 1280-compound library screen; ThS fluorescence net change over 16 h

Compared with `C=CC1=C(C(=O)O)N2C(=O)[C@@H](NC(=O)/C(=N\OCC(=O)O)c3csc(N)n3)[C@H]2SC1` [Cefixime], `CC(=O)OCC(=O)[C@@]1(O)CC[C@H]2[C@@H]3CCC4=CC(=O)CC[C@]4(C)[C@@]3(F)[C@@H](O)C[C@@]21C` [Fludrocortisone acetate] is lower in ThS net change: 408 for the first, 380 for the second.

`CC1(C)O[C@@H]2C[C@H]3[C@@H]4CCC5=CC(=O)CC[C@]5(C)[C@@]4(F)[C@@H](O)C[C@]3(C)[C@]2(C(=O)CCl)O1` [Halcinonide] and `C[C@]12CC[C@@H]3c4ccc(O)cc4CC[C@H]3[C@@H]1CC[C@@H]2O` [Estradiol-17 beta] are the same in ThS net change: 384 for the first, 384 for the second.

`O=C(CCCCCCC(=O)Nc1ccccc1)NO` [Vorinostat] was tested, and the ThS net change was 398.

Same assay, conditions: 1280-compound library screen; […]

For `O=P(O)(O)C(O)(Cn1ccnc1)P(=O)(O)O` [Zoledronic acid hydrate], the ThS net change was 398.

Same assay, conditions: flag: p-tau aggregation inhibitor, ThS net change more than 2 SD from mean

`CO[C@H]1/C=C/O[C@@]2(C)Oc3c(C)c(O)c4c(O)c(c(/C=N/N5CCN(C)CC5)c(O)c4c3C2=O)NC(=O)/C(C)=C\C=C\[C@H](C)[C@H](O)[C@@H](C)[C@@H](O)[C@@H](C)[C@H](OC(C)=O)[C@@H]1C` [Rifampicin] was tested, and the “PTAI>2SD” value was “*”.
`C[C@H]1c2cccc(O)c2C(=O)C2=C(O)[C@]3(O)C(=O)C(C(N)=O)=C(O)[C@@H](N(C)C)[C@@H]3[C@@H](O)[C@@H]21` [Doxycycline hydrochloride] was tested, and the “PTAI>2SD” value was “*”.

Same assay, conditions: flag: p-tau aggregation inhibitor, ThS net change more than 3 SD from mean

With `O=C1c2cccc(O)c2C(=O)c2c(O)cccc21` [1,8-Dihydroxyanthraquinone] the “PTAI>3SD” value was “*”.

Same assay, conditions: library screen, ThS fluorescence net change over 16 h with p-tau

Compared with `O=C1c2cccc(O)c2C(=O)c2c(O)cccc21` [1,8-Dihydroxyanthraquinone], `C[C@H]1c2cccc(O)c2C(=O)C2=C(O)[C@]3(O)C(=O)C(C(N)=O)=C(O)[C@@H](N(C)C)[C@@H]3[C@@H](O)[C@@H]21` [Doxycycline hydrochloride] is higher in ThS net change: 25 for the first, 174 for the second.

Work on `CO[C@H]1/C=C/O[C@@]2(C)Oc3c(C)c(O)c4c(O)c(c(/C=N/N5CCN(C)CC5)c(O)c4c3C2=O)NC(=O)/C(C)=C\C=C\[C@H](C)[C@H](O)[C@@H](C)[C@@H](O)[C@@H](C)[C@H](OC(C)=O)[C@@H]1C` [Rifampicin] yielded a ThS net change of 158.

Same assay, conditions: p-tau aggregation modulator screen of 1280-compound library; ThS fluorescence net change

First: CN1C(C)(C)CCCC1(C)C [Pempidine tartrate]
Second: COc1cc(OC)c(C(=O)CCCN2CCCC2)c(OC)c1.Cl [Buflomedil hydrochloride]
The ThS net change of the first is lower: 362 for the first, 363 for the second.

Going from `NCCc1cc[nH]n1` [Betazole hydrochloride] to `Nc1[nH]c(=O)ncc1F` [Flucytosine], the ThS net change rises from 333 to 334.

Compared with `COC(=O)Nc1nc2ccc(C(=O)c3ccccc3)cc2[nH]1` [Mebendazole], `CCOC(=O)NNc1nncc2ccccc12` [Todralazine hydrochloride] is lower in ThS net change: 340 for the first, 334 for the second.

Going from `O=C(NCC1CCCCN1)c1cc(OCC(F)(F)F)ccc1OCC(F)(F)F` (stereo not drawn) [Flecainide acetate] to `Fc1ccc([C@@H]2CCNC[C@H]2COc2ccc3c(c2)OCO3)cc1` [Paroxetine Hydrochloride], the ThS net change rises from 354 to 363.

Compared with `CN(C)CCOC(c1ccccc1)c1ccccc1` [Diphenhydramine hydrochloride], `CCn1cc(C(=O)O)c(=O)c2cc(F)c(N3CCNCC3)cc21` [Norfloxacin] is higher in ThS net change: 335 for the first, 340 for the second.

Same assay, conditions: p-tau aggregation modulator screen of the compound library, ThS fluorescence net change

Going from `O=C(Cn1ccnc1[N+](=O)[O-])NCCO` [Etanidazole] to `CCCN(CCC)S(=O)(=O)c1ccc(C(=O)O)cc1` [Probenecid], the ThS net change falls from 461 to 416.

Compared with `Cc1cn([C@H]2C=C[C@@H](CO)O2)c(=O)[nH]c1=O` [Stavudine], `C[C@@H](O)[C@H]1C(=O)N2C(C(=O)O)=C(S[C@@H]3CN[C@H](C(=O)N(C)C)C3)[C@H](C)[C@H]12` [Meropenem] is higher in ThS net change: 428 for the first, 490 for the second.

Compared with `CCOC1O[C@H]([C@@H](COCc2ccccc2)OCc2ccccc2)[C@H](OCc2ccccc2)[C@H]1O` (stereo partly drawn) [Tribenoside], `Nc1nc(/C(=C/CC(=O)O)C(=O)N[C@@H]2C(=O)N3C(C(=O)O)=CCS[C@H]23)cs1` [Ceftibuten] is lower in ThS net change: 690 for the first, 441 for the second.
